Patent US20240217911A1, “A hydroxycarboxylic acid for the treatment of cancer” (UNIVERSITÄT ZÜRICH, priority 2021, published 2024)
Entries after “also recorded” stand apart in the source; their conditions may differ.

Experiments:
Assay type in all cases: in vivo, mouse
CD8+ T cells = experiment: flow analysis of CD8+ T cells in MC-38 tumours; details: flow analysis in MC-38 tumor
Protocol: FIG. 17. A, MC-38 tumor volume curve (mm^3) and B, tumorweight (g) in WT mice treated with GPR84 agonist, 3-OH dodecanoic acid (3-OH Dodeca), GPR84 antagonist, GPR84 antagonist & 3-OH Dodeca or saline (Ctrl). C, Bar charts of flow analysis in tumor corresponding to the groups described in A and B. Two-way ANOVA with Dunnett's correction for multiple comparisons (A & C). Means±SEM analyzed by Kruskal-Wallis and Dunn's correction for multiple comparison (B). Experiments were performed at least twice, n=5.
(§1) Each metabolite was dissolved in dimethyl sulfoxide (DMSO) to reach the stock concentration of 100 mM. For mice injections, stock solution of each metabolite was diluted 1:500 in saline to reach final concentration of 200 uM and 200 uL/mouse were injected intraperitoneally on day 6, day 9 and day 12-post tumour cell injection. Metabolites used: 3-Hydroxydodecanedioic acid (R and S forms) (collaborators UZH), Dodecanedioic acid (Sigma), Decanoic acid (Sigma), Unidecanoic acid (Sigma), Dodecanoic acid (Sigma), Tridecanoic acid (Sigma), Tetradecanoic acid (Angene), 3-Hydroxydecanoic acid (Sigma), 3-Hydroxydodecanoic acid (Sigma), 3-Hydroxytetradecanoic acid (Angene). GPR84 receptor blockade was performed in the subcutaneous tumour model by injecting 200 uL/mouse of 200 uM of GPR84 antagonist GLPG1205 (MCE MedChemExpress).

MC-38 tumours = experiment: MC-38 subcutaneous CRC tumour model; details: for anti-tumour effect, tumour volume and weight (FIG. 15): 5-FU or both; for anti-tumour effect, tumour volume and weight (FIG. 11-13): metabolite 200 uM, 200 uL/mouse i.p. day 6, 9, 12, vs vehicle; for tumour reduction, tumor volume and weight (FIG. 17A-B): GPR84 agonist/antagonist 200 uM
Protocol: WT C57BL/6JRJ were purchased from Janvier Labs (France). All mice were kept in specific-pathogen-free conditions. Males and female littermates between 8-12 weeks were used for all the experiments. All animal experiments were performed according to Swiss animal welfare legislation and approved by the local veterinary office (Veterinaramt des Kantons Zurich). […]
For CRC injection models, MC38 cells were suspended in DMEM high glucose cell culture medium mixed 1:1 with Matrigel and 300,000 cells injected subcutaneously into the flanks, and mice euthanized […] after injection. Tumour development was measured every 3 days using a digital calliper. Tumour volume was calculated using the ellipsoid formula: 4/3*3.14*Length/2*(Width/2)^2, where the shorter dimension was used as width and depth. Mice were terminated 14 days after subcutaneous injection or when tumour volume reached 1 cm^3 or the length reached 2 cm. For the other solid tumours subcutaneous injection models, B16 melanoma cells were suspended in DMEM high glucose cell culture medium mixed 1:1 with Matrigel and 200,000 cells injected into both flanks of the animal. Lewis lung carcinoma cells LLC1.1 were suspended in DMEM high glucose cell culture medium mixed 1:1 with Matrigel and 200,000 cells injected in the right flank of a mouse. PD-1 blockade was performed in the subcutaneous tumour model by injecting of 200 μg/mouse anti-PD1(CD279) antibody (BioXCell; clone 29F.1A12) or IgG isotype control (BioXCell; clone 2a3) i.p. on days 6, 9 and 12 after subcutaneous MC-38 cells injection. 5-Fluorouracil (5-FU) was administered by i.p injections of 20 mg/kg 5-FU dissolved in DMSO at days 6, 9, and 12.
as §1

LLC1.1 lung cancer = experiment: LLC1.1 Lewis lung carcinoma subcutaneous tumour model; details: LLC.1 lung cancer; vs vehicle
Protocol: (§2) WT C57BL/6JRJ were purchased from Janvier Labs (France). All mice were kept in specific-pathogen-free conditions. Males and female littermates between 8-12 weeks were used for all the experiments. All animal experiments were performed according to Swiss animal welfare legislation and approved by the local veterinary office (Veterinaramt des Kantons Zurich).
(§3) Clostridiales strains Eubacterium hallii: DSM3353T, Faecalibacterium prausnitzii: DSM17677, Roseburia intestinalis: DSM14610T, Anaerostipes caccae: DSM14662T were obtained from PharmaBiome AG, Zurich (sometimes referred to as butyrate producers, 4 clostridia consortia CC4, or BP). All strains were cultivated at 37° C. in yeast extract, casitone and fatty acid (YCFA) medium (Lopez et al. 2012. Appl Environ Microbiol 78, 420-428). Strains were maintained under anoxic CO2 atmosphere using Hungate techniques. […] Viability of cells was confirmed using propidium iodide staining measured by flow cytometry. […]
(§4) For CRC injection models, MC38 cells were suspended in DMEM high glucose cell culture medium mixed 1:1 with Matrigel and 300,000 cells injected subcutaneously into the flanks, and mice euthanized […] after injection. Tumour development was measured every 3 days using a digital calliper. Tumour volume was calculated using the ellipsoid formula: 4/3*3.14*Length/2*(Width/2)^2, where the shorter dimension was used as width and depth. […]

B16 melanoma = B16 melanoma subcutaneous tumour model; details: vs vehicle
Protocol: as §2, §3, §4

Compound	expression of granzyme B and IFNγ by CD8+ T cells (FIG. 17C) (CD8+ T cells)	anti-tumour effect, tumour volume and weight (FIG. 15) (MC-38 tumours; 3-hydroxydodecanoic acid)	anti-tumour effect, tumour volume and weight (FIG. 14) (MC-38 tumours; 3-hydroxydodecanoic acid, anti-PD-1 or both)	anti-tumour effect, tumour volume and weight (FIG. 11-13) (MC-38 tumours)	anti-tumour effect, tumour volume and weight (FIG. 11-13) (MC-38 tumours; listed as CH3(CH2)8 CHOH—(CH2)—CO2H)	anti-tumour effect, tumour volume and weight (FIG. 16 B) (LLC1.1 lung cancer)	anti-tumour effect, tumour volume and weight (FIG. 16 A) (B16 melanoma)	tumour reduction, tumor volume and weight (FIG. 17A-B) (MC-38 tumours; 200 uL/mouse i.p. day 6, 9, 12)	tumour reduction, tumor volume and weight (FIG. 17A-B) (MC-38 tumours; 200 uL/mouse i.p. day 6, 9, 12, listed as 2-(hexylthio)pyramidine-4,6-diol)
CCCCCCCCCC(O)CC(=O)O (stereo not shown) [3-hydroxydodecanoic acid]	similarly increased expression of granzyme B and IFNγ by CD8+ T cells	comparable anti-tumour effect	comparable anti-tumour effect	most favourable anti-tumour effect; also recorded: anti-tumour effect of the bacterial metabolites was specifically induced by 3-hydroxydodecanoic acid	inhibited tumour growth	clear anti-tumour effect	clear anti-tumour effect		
O=c1[nH]cc(F)c(=O)[nH]1 [5-FU, 5-fluorouracil, reference compound]		comparable anti-tumour effect							
O=c1nc(OC[C@@H]2COCCO2)cc2n1CCc1cc(C#CC3CC3)ccc1-2 [GPR84 antagonist, reference compound]	entirely lost this anti-tumour immunological change							completely abrogated the anti-tumour effect of 3-hydroxydodecanoic acid	
CCCCCCSc1nc(O)cc(=O)[nH]1 [ZQ-16, 2-(hexylthio)pyramidine-4,6-diol, reference compound]	similarly increased expression of granzyme B and IFNγ by CD8+ T cells							limit tumour growth in a model of cancer in vivo	inhibited tumour growth
